# According to ChEMBL document CHEMBL4033793, “Potent and Selective Inhibitors of Human Sirtuin 5” (J Med Chem, 2018):
# Residues, ends and D or L forms follow the SMILES beside them. *: point of attachment. X49 = O=C(O)[C@H](CC(=O)*)SCc1cccc(C(F)(F)F)c1; X62 = Cc1cc(C)c(CS[C@@H](CC(=O)*)C(=O)O)c(C)c1; X56 = Cc1cc(C)c(CS[C@H](CC(=O)*)C(=O)O)c(C)c1; X16 = O=C(O)[C@H](CC(=O)*)SCc1ccc(Cl)c(Cl)c1; X74 = O=C(O)[C@@H](CC(=O)*)SCc1ccc(Cl)cc1Cl; X18 = O=C(O)[C@@H](CC(=O)*)Sc1c(Cl)cccc1Cl; X24 = O=C(O)[C@H](CC(=O)*)SCc1ccc(Cl)cc1Cl; X3 = O=C(O)[C@H](CC(=O)*)Sc1ccc(Cl)c(Cl)c1; X41 = O=C(O)[C@@H](CC(=O)*)Sc1cc(Cl)ccc1Cl; X55 = O=C(O)[C@@H](CC(=O)*)Sc1ccc(Cl)cc1Cl; X31 = O=C(O)[C@H](CC(=O)*)Sc1cccc(Cl)c1Cl; X38 = O=C(O)[C@H](CC(=O)*)Sc1cccc2ccccc12; X43 = O=C(O)[C@H](CC(=O)*)Sc1ccc(Cl)cc1Cl; X50 = O=C(O)[C@H](CC(=O)*)Sc1cc(Cl)ccc1Cl; X64 = O=C(O)[C@H](CC(=O)*)Sc1c(Cl)cccc1Cl; X66 = COc1ccc(CS[C@@H](CC(=O)*)C(=O)O)cc1; X22 = COc1ccc(CS[C@H](CC(=O)*)C(=O)O)cc1; X33 = Cc1ccc(S[C@@H](CC(=O)*)C(=O)O)cc1C; X57 = O=C(O)[C@@H](CC(=O)*)Sc1ccc(Cl)cc1; X19 = O=C(O)[C@H](CC(=O)*)Sc1ccc(Cl)cc1; X70 = O=C(O)[C@H](CC(=O)*)Sc1cccc(Cl)c1; X34 = O=C(O)[C@@H](CC(=O)*)Sc1ccccc1Cl; X37 = O=C(O)[C@H](CC(=O)*)SCCCc1ccccc1; X73 = O=C(O)[C@H](CC(=O)*)SCc1ccccc1Cl; X45 = O=C(O)[C@H](CC(=O)*)SC1CCCCC1; X8 = O=C(O)[C@H](CC(=O)*)Sc1ccccc1; X44 = CC(CC(=O)*)Sc1ccc2ccccc2c1; X7 = O=C(O)C(CC(=O)*)SCCc1ccncc1; Bz = O=C(c1ccccc1)*
# Target: NAD-dependent protein deacylase sirtuin-5, mitochondrial (Homo sapiens, UniProt Q9NXA8)
# Test: Inhibition of human recombinant N-terminal Strep2-tagged SIRT5 expressed in Escherichia coli BL21 (DE3) using Abz-GVLK(glutaryl)AY(NO2)GV-NH2 as substrate in presence of NAD+ by fluorescence assay
# Chain of NAD-dependent protein deacylase sirtuin-5, mitochondrial (Q9NXA8 whole entry): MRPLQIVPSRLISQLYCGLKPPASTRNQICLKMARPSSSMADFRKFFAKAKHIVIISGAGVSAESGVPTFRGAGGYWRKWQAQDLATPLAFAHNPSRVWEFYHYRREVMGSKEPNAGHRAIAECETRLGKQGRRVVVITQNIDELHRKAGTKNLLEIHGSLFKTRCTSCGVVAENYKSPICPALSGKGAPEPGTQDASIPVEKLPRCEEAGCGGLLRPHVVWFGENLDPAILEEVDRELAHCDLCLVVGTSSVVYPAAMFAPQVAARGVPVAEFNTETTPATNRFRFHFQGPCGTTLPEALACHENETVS
SMILES,IC50,Ki
CC(C)C[C@H](NC(=O)[C@@H](NC(=O)CNC(=O)c1ccccc1)C(C)C)C(=O)N[C@@H](CCCCNC(=O)C[C@@H](Sc1c(Cl)cccc1Cl)C(=O)O)C(=O)N[C@@H](CCC(=O)O)C(=O)N[C@@H](Cc1ccc(O)cc1)C(=O)NCC(=O)N[C@H](C(N)=O)C(C)C (Bz-GVLK(X18)EYGV-NH2),12500 nM,–
CNC(=O)c1cccc(NC(=O)C[C@H](Sc2ccc3ccccc3c2)C(=O)O)c1,90000 nM,–
CC(C)C[C@H](NC(=O)[C@@H](NC(=O)CNC(=O)c1ccccc1)C(C)C)C(=O)N[C@@H](CCCCNC(=O)C[C@H](Sc1cc(Cl)ccc1Cl)C(=O)O)C(=O)N[C@@H](CCC(=O)O)C(=O)N[C@@H](Cc1ccc(O)cc1)C(=O)NCC(=O)N[C@H](C(N)=O)C(C)C (Bz-GVLK(X50)EYGV-NH2),295 nM,–
Cc1cc(C)c(CS[C@H](CC(=O)NCCCC[C@H](NC(=O)[C@H](CC(C)C)NC(=O)[C@@H](NC(=O)CNC(=O)c2ccccc2)C(C)C)C(=O)N[C@@H](CCC(=O)O)C(=O)N[C@@H](Cc2ccc(O)cc2)C(=O)NCC(=O)N[C@H](C(N)=O)C(C)C)C(=O)O)c(C)c1 (Bz-GVLK(X56)EYGV-NH2),631 nM,–
CC(C)C[C@H](NC(=O)[C@@H](NC(=O)CNC(=O)c1ccccc1)C(C)C)C(=O)N[C@@H](CCCCNC(=O)C[C@H](SCc1cccc(C(F)(F)F)c1)C(=O)O)C(=O)N[C@@H](CCC(=O)O)C(=O)N[C@@H](Cc1ccc(O)cc1)C(=O)NCC(=O)N[C@H](C(N)=O)C(C)C (Bz-GVLK(X49)EYGV-NH2),1120 nM,–
CC(C)C[C@H](NC(=O)[C@@H](NC(=O)CNC(=O)c1ccccc1)C(C)C)C(=O)N[C@@H](CCCCNC(=O)C[C@H](SCc1ccccc1Cl)C(=O)O)C(=O)N[C@@H](CCC(=O)O)C(=O)N[C@@H](Cc1ccc(O)cc1)C(=O)NCC(=O)N[C@H](C(N)=O)C(C)C (Bz-GVLK(X73)EYGV-NH2),533 nM,–
COc1ccc(CS[C@@H](CC(=O)NCCCC[C@H](NC(=O)[C@H](CC(C)C)NC(=O)[C@@H](NC(=O)CNC(=O)c2ccccc2)C(C)C)C(=O)N[C@@H](CCC(=O)O)C(=O)N[C@@H](Cc2ccc(O)cc2)C(=O)NCC(=O)N[C@H](C(N)=O)C(C)C)C(=O)O)cc1 (Bz-GVLK(X66)EYGV-NH2),1050 nM,–
CC(C)C[C@H](NC(=O)[C@@H](NC(=O)CNC(=O)c1ccccc1)C(C)C)C(=O)N[C@@H](CCCCNC(=O)CC(C)Sc1ccc2ccccc2c1)C(=O)N[C@@H](CCC(=O)O)C(=O)N[C@@H](Cc1ccc(O)cc1)C(=O)NCC(=O)N[C@H](C(N)=O)C(C)C (stereo partly drawn) (Bz-GVLK(X44)EYGV-NH2),> 40000 nM,–
CC(C)C[C@H](NC(=O)[C@@H](NC(=O)CNC(=O)c1ccccc1)C(C)C)C(=O)N[C@@H](CCCCNC(=O)C[C@H](Sc1ccccc1)C(=O)O)C(=O)N[C@@H](CCC(=O)O)C(=O)N[C@@H](Cc1ccc(O)cc1)C(=O)NCC(=O)N[C@H](C(N)=O)C(C)C (Bz-GVLK(X8)EYGV-NH2),274 nM,135 nM
CC(C)C[C@H](NC(=O)[C@@H](NC(=O)CNC(=O)c1ccccc1)C(C)C)C(=O)N[C@@H](CCCCNC(=O)C[C@@H](SCc1ccc(Cl)cc1Cl)C(=O)O)C(=O)N[C@@H](CCC(=O)O)C(=O)N[C@@H](Cc1ccc(O)cc1)C(=O)NCC(=O)N[C@H](C(N)=O)C(C)C (Bz-GVLK(X74)EYGV-NH2),432 nM,–
COc1ccc(CS[C@H](CC(=O)NCCCC[C@H](NC(=O)[C@H](CC(C)C)NC(=O)[C@@H](NC(=O)CNC(=O)c2ccccc2)C(C)C)C(=O)N[C@@H](CCC(=O)O)C(=O)N[C@@H](Cc2ccc(O)cc2)C(=O)NCC(=O)N[C@H](C(N)=O)C(C)C)C(=O)O)cc1 (Bz-GVLK(X22)EYGV-NH2),1110 nM,–
Cc1ccc(S[C@@H](CC(=O)NCCCC[C@H](NC(=O)[C@H](CC(C)C)NC(=O)[C@@H](NC(=O)CNC(=O)c2ccccc2)C(C)C)C(=O)N[C@@H](CCC(=O)O)C(=O)N[C@@H](Cc2ccc(O)cc2)C(=O)NCC(=O)N[C@H](C(N)=O)C(C)C)C(=O)O)cc1C (Bz-GVLK(X33)EYGV-NH2),46.1 nM,–
CC(C)C[C@H](NC(=O)[C@@H](NC(=O)CNC(=O)c1ccccc1)C(C)C)C(=O)N[C@@H](CCCCNC(=O)C[C@H](Sc1cccc2ccccc12)C(=O)O)C(=O)N[C@@H](CCC(=O)O)C(=O)N[C@@H](Cc1ccc(O)cc1)C(=O)NCC(=O)N[C@H](C(N)=O)C(C)C (Bz-GVLK(X38)EYGV-NH2),95 nM,–
CCCCNC(=O)C[C@H](Sc1ccc2ccccc2c1)C(=O)O,154000 nM,–
CC(C)C[C@H](NC(=O)[C@@H](NC(=O)CNC(=O)c1ccccc1)C(C)C)C(=O)N[C@@H](CCCCNC(=O)C[C@H](Sc1ccc(Cl)cc1Cl)C(=O)O)C(=O)N[C@@H](CCC(=O)O)C(=O)N[C@@H](Cc1ccc(O)cc1)C(=O)NCC(=O)N[C@H](C(N)=O)C(C)C (Bz-GVLK(X43)EYGV-NH2),177 nM,–
CC(C)C[C@H](NC(=O)[C@@H](NC(=O)CNC(=O)c1ccccc1)C(C)C)C(=O)N[C@@H](CCCCNC(=O)C[C@@H](Sc1ccccc1Cl)C(=O)O)C(=O)N[C@@H](CCC(=O)O)C(=O)N[C@@H](Cc1ccc(O)cc1)C(=O)NCC(=O)N[C@H](C(N)=O)C(C)C (Bz-GVLK(X34)EYGV-NH2),3100 nM,–

SMILES,IC50,Ki
CC(C)C[C@H](NC(=O)[C@@H](NC(=O)CNC(=O)c1ccccc1)C(C)C)C(=O)N[C@@H](CCCCNC(=O)C[C@H](SC1CCCCC1)C(=O)O)C(=O)N[C@@H](CCC(=O)O)C(=O)N[C@@H](Cc1ccc(O)cc1)C(=O)NCC(=O)N[C@H](C(N)=O)C(C)C (Bz-GVLK(X45)EYGV-NH2),> 4000 nM,–
CC(C)C[C@H](NC(=O)[C@@H](NC(=O)CNC(=O)c1ccccc1)C(C)C)C(=O)N[C@@H](CCCCNC(=O)C[C@@H](Sc1ccc(Cl)cc1Cl)C(=O)O)C(=O)N[C@@H](CCC(=O)O)C(=O)N[C@@H](Cc1ccc(O)cc1)C(=O)NCC(=O)N[C@H](C(N)=O)C(C)C (Bz-GVLK(X55)EYGV-NH2),2010 nM,–
O=C(C[C@H](Sc1ccc2ccccc2c1)C(=O)O)NCCCc1ccccc1,72600 nM,–
CC(C)C[C@H](NC(=O)[C@@H](NC(=O)CNC(=O)c1ccccc1)C(C)C)C(=O)N[C@@H](CCCCNC(=O)CC(SCCc1ccncc1)C(=O)O)C(=O)N[C@@H](CCC(=O)O)C(=O)N[C@@H](Cc1ccc(O)cc1)C(=O)NCC(=O)N[C@H](C(N)=O)C(C)C (stereo partly drawn) (Bz-GVLK(X7)EYGV-NH2),13200 nM,–
CC(C)C[C@H](NC(=O)[C@@H](NC(=O)CNC(=O)c1ccccc1)C(C)C)C(=O)N[C@@H](CCCCNC(=O)C[C@H](SCc1ccc(Cl)cc1Cl)C(=O)O)C(=O)N[C@@H](CCC(=O)O)C(=O)N[C@@H](Cc1ccc(O)cc1)C(=O)NCC(=O)N[C@H](C(N)=O)C(C)C (Bz-GVLK(X24)EYGV-NH2),543 nM,–
CC(C)C[C@H](NC(=O)[C@@H](NC(=O)CNC(=O)c1ccccc1)C(C)C)C(=O)N[C@@H](CCCCNC(=O)C[C@H](Sc1c(Cl)cccc1Cl)C(=O)O)C(=O)N[C@@H](CCC(=O)O)C(=O)N[C@@H](Cc1ccc(O)cc1)C(=O)NCC(=O)N[C@H](C(N)=O)C(C)C (Bz-GVLK(X64)EYGV-NH2),577 nM,–
CC(C)C[C@H](NC(=O)[C@@H](NC(=O)CNC(=O)c1ccccc1)C(C)C)C(=O)N[C@@H](CCCCNC(=O)C[C@H](SCCCc1ccccc1)C(=O)O)C(=O)N[C@@H](CCC(=O)O)C(=O)N[C@@H](Cc1ccc(O)cc1)C(=O)NCC(=O)N[C@H](C(N)=O)C(C)C (Bz-GVLK(X37)EYGV-NH2),1130 nM,–
Cc1cc(C)c(CS[C@@H](CC(=O)NCCCC[C@H](NC(=O)[C@H](CC(C)C)NC(=O)[C@@H](NC(=O)CNC(=O)c2ccccc2)C(C)C)C(=O)N[C@@H](CCC(=O)O)C(=O)N[C@@H](Cc2ccc(O)cc2)C(=O)NCC(=O)N[C@H](C(N)=O)C(C)C)C(=O)O)c(C)c1 (Bz-GVLK(X62)EYGV-NH2),5200 nM,–
CC(C)C[C@H](NC(=O)[C@@H](NC(=O)CNC(=O)c1ccccc1)C(C)C)C(=O)N[C@@H](CCCCNC(=O)C[C@H](Sc1cccc(Cl)c1Cl)C(=O)O)C(=O)N[C@@H](CCC(=O)O)C(=O)N[C@@H](Cc1ccc(O)cc1)C(=O)NCC(=O)N[C@H](C(N)=O)C(C)C (Bz-GVLK(X31)EYGV-NH2),715 nM,–
CC(C)C[C@H](NC(=O)[C@@H](NC(=O)CNC(=O)c1ccccc1)C(C)C)C(=O)N[C@@H](CCCCNC(=O)C[C@@H](Sc1ccc(Cl)cc1)C(=O)O)C(=O)N[C@@H](CCC(=O)O)C(=O)N[C@@H](Cc1ccc(O)cc1)C(=O)NCC(=O)N[C@H](C(N)=O)C(C)C (Bz-GVLK(X57)EYGV-NH2),1610 nM,–
CC(C)C[C@H](NC(=O)[C@@H](NC(=O)CNC(=O)c1ccccc1)C(C)C)C(=O)N[C@@H](CCCCNC(=O)C[C@@H](Sc1cc(Cl)ccc1Cl)C(=O)O)C(=O)N[C@@H](CCC(=O)O)C(=O)N[C@@H](Cc1ccc(O)cc1)C(=O)NCC(=O)N[C@H](C(N)=O)C(C)C (Bz-GVLK(X41)EYGV-NH2),1980 nM,–
CC(C)C[C@H](NC(=O)[C@@H](NC(=O)CNC(=O)c1ccccc1)C(C)C)C(=O)N[C@@H](CCCCNC(=O)C[C@H](Sc1cccc(Cl)c1)C(=O)O)C(=O)N[C@@H](CCC(=O)O)C(=O)N[C@@H](Cc1ccc(O)cc1)C(=O)NCC(=O)N[C@H](C(N)=O)C(C)C (Bz-GVLK(X70)EYGV-NH2),120 nM,–
CC(C)C[C@H](NC(=O)[C@@H](NC(=O)CNC(=O)c1ccccc1)C(C)C)C(=O)N[C@@H](CCCCNC(=O)C[C@H](Sc1ccc(Cl)c(Cl)c1)C(=O)O)C(=O)N[C@@H](CCC(=O)O)C(=O)N[C@@H](Cc1ccc(O)cc1)C(=O)NCC(=O)N[C@H](C(N)=O)C(C)C (Bz-GVLK(X3)EYGV-NH2),45.9 nM,23 nM
CC(C)C[C@H](NC(=O)[C@@H](NC(=O)CNC(=O)c1ccccc1)C(C)C)C(=O)N[C@@H](CCCCNC(=O)C[C@H](SCc1ccc(Cl)c(Cl)c1)C(=O)O)C(=O)N[C@@H](CCC(=O)O)C(=O)N[C@@H](Cc1ccc(O)cc1)C(=O)NCC(=O)N[C@H](C(N)=O)C(C)C (Bz-GVLK(X16)EYGV-NH2),740 nM,–
CC(C)C[C@H](NC(=O)[C@@H](NC(=O)CNC(=O)c1ccccc1)C(C)C)C(=O)N[C@@H](CCCCNC(=O)C[C@H](Sc1ccc(Cl)cc1)C(=O)O)C(=O)N[C@@H](CCC(=O)O)C(=O)N[C@@H](Cc1ccc(O)cc1)C(=O)NCC(=O)N[C@H](C(N)=O)C(C)C (Bz-GVLK(X19)EYGV-NH2),102 nM,–
